Assay results published in US20220251054A1, “Analogues and Methods of Treating Rett Syndrome” (The Regents of the University of California, priority 2019, published 2022).
“Also recorded” adds a separate entry of the source.

What was measured:
Mutant IPSCs = assay type: cell-based; details: 10 μM, 48 hours
Cx+GE organoids = experiment: Live organoid calcium imaging (GCaMP6f) with GABAA receptor antagonist; assay type: cell-based, human; details: for synchronization of calcium transients / neural activities: Cx+GE organoids, bicuculline methiodide 100 μM or gabazine 25 μM
Cx+Cx organoids = experiment: as above; assay type: cell-based, human; details: for synchronization of calcium transients / neural activities: Cx+Cx organoids, bicuculline methiodide 100 μM or gabazine 25 μM
Mut Cx+GE organoids = experiment: Extracellular recording of local field potentials (LFP) in Rett syndrome fusion organoids; assay type: cell-based, human; details: for high frequency oscillations (HFOs, about 200-500 Hz) / lower frequency / gamma oscillations (about 40-80 Hz) / spiking activity / spike frequency: Mut Cx+GE organoids treated 48-hr; for high frequency oscillations (HFOs, about 200-500 Hz) / lower frequency / gamma oscillations (about 40-80 Hz): 2 mM VPA or 10 μM Pifithrin-α; for spiking activity / spike frequency: 2 mM sodium valproate (VPA) or 10 μM Pifithrin-α
[1] = tested on: MECP2− (Mutant) interneurons; experiment: P21 protein immunofluorescence (senescence marker) in treated neurons; assay type: cell-based; details: 10 μM, 48 hours, WT and Mutant interneurons
P53 = P53 (Homo sapiens, UniProt P04637); details: cited from earlier work
Sequence of P53 (P04637 whole entry): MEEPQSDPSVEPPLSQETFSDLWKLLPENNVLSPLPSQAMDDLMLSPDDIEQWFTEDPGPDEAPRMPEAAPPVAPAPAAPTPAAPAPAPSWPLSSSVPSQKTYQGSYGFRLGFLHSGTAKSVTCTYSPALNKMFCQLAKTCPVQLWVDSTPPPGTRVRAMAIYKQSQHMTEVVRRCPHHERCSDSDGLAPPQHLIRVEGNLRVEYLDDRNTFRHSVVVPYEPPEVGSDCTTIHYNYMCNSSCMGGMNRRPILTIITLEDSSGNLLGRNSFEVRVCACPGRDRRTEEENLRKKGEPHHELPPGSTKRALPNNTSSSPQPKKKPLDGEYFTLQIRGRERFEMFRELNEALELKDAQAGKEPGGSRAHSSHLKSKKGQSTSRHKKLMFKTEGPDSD

For `Cc1ccc(-c2cn3c4c(sc3n2)CCCC4)cc1` [Pifithrin β, 2-(p-tolyl)-5,6,7,8-tetrahydroben-zo[d]imidazo[2,1-b]thiazole], the “increased levels of P53 target genes (RT-PCR)” value (“increased levels” below) (Mutant IPSCs) was “abrogated”.
For `C[N+]1(C)CCc2cc3c(cc2[C@H]1[C@@H]1OC(=O)c2c1ccc1c2OCO1)OCO3.[I-]` [BMI, bicuculline methiodide], the “hierarchical clustering: groups of neurons with correlated activity” value (Cx+GE organoids; Cx+GE organoids following BMI treatment) was “large groups of neurons with highly correlated activity”, the “synchronization of calcium transients / neural activities” value (Cx+GE organoids) was “spontaneous synchronization of neural activities; also recorded: epochs of nearly complete synchronization of calcium transients” and the “hierarchical clustering: groups of neurons with correlated activity” value (Cx+Cx organoids; Cx+Cx organoids following BMI treatment) was “only small groups”. The “synchronization of calcium transients / neural activities” value (Cx+Cx organoids) was “minimal effect; also recorded: no such effect”.
With `Cc1ccc(C(=O)Cn2c3c(sc2=N)CCCC3)cc1` [Pifithrin α, 2-(2-imino-4,5,6,7-tetrahydrobenzo[d]thiazol-3(2H)-yl)-1-(p-tolyl)ethan-1-one hydrogen bromide] the “oscillatory activity (extracellular recording)” value (Mut Cx+GE organoids; Mut Cx+GE organoids (RTT) exposed to 10 μM for 48 hours, Day 100) was “reveal oscillatory activity at multiple frequencies”, the “sustained oscillatory activity (PSD)” value (Mut Cx+GE organoids; Mut Cx+GE organoids exposed to 100 μM for 48 hours, Day 100) was “shows rescue of sustained oscillatory activity” and the “high frequency oscillations (HFOs, about 200-500 Hz)” value (Mut Cx+GE organoids) was “suppressed HFOs”. For the same compound, the “lower frequency / gamma oscillations (about 40-80 Hz)” value (Mut Cx+GE organoids) was “re-emergence of gamma oscillations”, the “spiking activity / spike frequency” value (Mut Cx+GE organoids) was “similarly reduced spike frequency” and the “cell senescence (P21 protein level by immunofluorescence)” value [1] was “block cell senescence due to increased p53 activity”. The “increased levels” value (Mutant IPSCs) was “abrogated” and the P53 inhibition (P53) was “effective P53 inhibitor”.
In the case of `CC(=O)/N=c1\sc2c(n1CC(=O)c1ccc(C)cc1)CCCC2` [Pifithrin α-Ac, N-(3-(2-oxo-2-(p-tolyl)ethyl)-4,5,6,7-tetrahydrobenzo[d]thiazol-2(3H)-ylidene)aceta-mide], the “increased levels” value (Mutant IPSCs) is reported as “abrogated”.
For `COc1ccc(-c2ccc(=N)n(CCCC(=O)O)n2)cc1` [Gabazine], the “synchronization of calcium transients / neural activities” value (Cx+GE organoids) was “epochs of nearly complete synchronization of calcium transients” and the “synchronization of calcium transients / neural activities” value (Cx+Cx organoids) was “no such effect”.
With `CCCC(CCC)C(=O)[O-].[Na+]` [VPA, sodium valproate] the “high frequency oscillations (HFOs, about 200-500 Hz)” value (Mut Cx+GE organoids) was “neither decreased HFOs”, the “lower frequency / gamma oscillations (about 40-80 Hz)” value (Mut Cx+GE organoids) was “nor restored lower frequency oscillations” and the “spiking activity / spike frequency” value (Mut Cx+GE organoids) was “significantly reduced spiking activity”.
